Data from US20240132431A1, “METHOD FOR ALKYLATING ACIDIC FUNCTIONAL GROUP” (Chugai Seiyaku Kabushiki Kaisha, priority 2021, published 2024).

Target: T1, Bcl-2 protein (Recombinant Human Bcl-2 Protein) (Homo sapiens, UniProt P10415)
T1 construct: purchased Novus NBP2-34889
Assay: Binding evaluation of mixture library compounds to Bcl-2 using AS-MS (affinity selection mass spectrometry)
Details: AS-MS on the mixture of 1200 library compounds, ASMS Ratio(%)=(A−C)/B×100; for ASMS ratio (%) n = 1: replicate n = 1; for ASMS ratio (%) n = 2: replicate n = 2
How it was run: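 ASMS Ratio (%) was calculated as (A−C)/B×100, where A is the protein sample after SEC, B the protein-free sample without SEC and C the protein-free sample after SEC. Each compound was at […] in a 1200-member pool with 20 μM Bcl-2, incubated 1 h at 23° C.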

T1 sequence (P10415 whole entry): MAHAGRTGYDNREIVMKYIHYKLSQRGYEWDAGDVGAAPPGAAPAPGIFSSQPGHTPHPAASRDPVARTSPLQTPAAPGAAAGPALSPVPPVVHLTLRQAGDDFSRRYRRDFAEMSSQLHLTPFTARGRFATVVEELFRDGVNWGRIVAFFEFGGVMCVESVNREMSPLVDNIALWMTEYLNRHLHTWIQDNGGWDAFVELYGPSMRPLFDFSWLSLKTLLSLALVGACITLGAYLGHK

Row | ASMS ratio (%) n = 1 | ASMS ratio (%) n = 2 | SMILES
1 | 10.8% | −12.7% | CCOc1cccc(-c2cc(CN3CCN(c4ccc(C(=O)N(C)CC56CC7CC(CC(C7)C5)C6)cc4)CC3)cc(OCC)c2)c1 [B3A055-01, N-(1-Adamantylmethyl)-4-[4-[[3-ethoxy-5-(3-ethoxyphenyl)phenyl]methyl]piperazin-1-yl]-N-methylbenzamide]
2 |  | 0.0% | CCOc1cncc(-c2cc(CN3CCN(c4ccc(C(=O)N(C)CC56CC7CC(CC(C7)C5)C6)cc4)CC3)cc(OCC)c2)c1 [B3A056-01, N-(1-Adamantylmethyl)-4-[4-[[3-ethoxy-5-(5-ethoxypyridin-3-yl)phenyl]methyl]piperazin-1-yl]-N-methylbenzamide]
3 | 6.3% | 2.5% | CCOc1cccc(-c2cc(CN3CCN(c4ccc(C(=O)N(C)CC56CC7CC(CC(C7)C5)C6)cc4)CC3)cc(OC(C)C)c2)c1 [B3A057-01, N-(1-Adamantylmethyl)-4-[4-[[3-(3-ethoxyphenyl)-5-propan-2-yloxyphenyl]methyl]piperazin-1-yl]-N-methylbenzamide]
4 | 5.9% | −7.6% | CCOc1cncc(-c2cc(CN3CCN(c4ccc(C(=O)N(C)CC56CC7CC(CC(C7)C5)C6)cc4)CC3)cc(OC(C)C)c2)c1 [B3A058-01, N-(1-Adamantylmethyl)-4-[4-[[3-(5-ethoxypyridin-3-yl)-5-propan-2-yloxyphenyl]methyl]piperazin-1-yl]-N-methylbenzamide]
5 | −1.9% | −8.0% | CCOc1cccc(-c2cc(OC)c(CN3CCN(c4ccc(C(=O)N(C)CC56CC7CC(CC(C7)C5)C6)cc4)CC3)c(OC)c2)c1 [B3A059-01, N-(1-Adamantylmethyl)-4-[4-[[4-(3-ethoxyphenyl)-2,6-dimethoxyphenyl]methyl]piperazin-1-yl]-N-methylbenzamide]
6 | 0.9% | 0.0% | CCOc1cncc(-c2cc(OC)c(CN3CCN(c4ccc(C(=O)N(C)CC56CC7CC(CC(C7)C5)C6)cc4)CC3)c(OC)c2)c1 [B3A060-01, N-(1-Adamantylmethyl)-4-[4-[[4-(5-ethoxypyridin-3-yl)-2,6-dimethoxyphenyl]methyl]piperazin-1-yl]-N-methylbenzamide]
7 |  | 421.3% | CCOc1cccc(-c2cc(CN3CCN(c4ccc(C(=O)N(C)CC56CC7CC(CC(C7)C5)C6)cc4)CC3)cc(C(F)(F)F)c2)c1 [B3A061-01, N-(1-Adamantylmethyl)-4-[4-[[3-(3-ethoxyphenyl)-5-(trifluoromethyl)phenyl]methyl]piperazin-1-yl]-N-methylbenzamide]
8 | 2.2% | 2.8% | CCOc1cncc(-c2cc(CN3CCN(c4ccc(C(=O)N(C)CC56CC7CC(CC(C7)C5)C6)cc4)CC3)cc(C(F)(F)F)c2)c1 [B3A062-01, N-(1-Adamantylmethyl)-4-[4-[[3-(5-ethoxypyridin-3-yl)-5-(trifluoromethyl)phenyl]methyl]piperazin-1-yl]-N-methylbenzamide]
9 |  | 390.0% | CCOc1cccc(-c2cc(CN3CCN(c4ccc(C(=O)N(C)CC56CC7CC(CC(C7)C5)C6)cc4)CC3)cc(OC(F)(F)F)c2)c1 [B3A063-01, N-(1-Adamantylmethyl)-4-[4-[[3-(3-ethoxyphenyl)-5-(trifluoromethoxy)phenyl]methyl]piperazin-1-yl]-N-methylbenzamide]
10 | −7.5% | −5.5% | CCOc1cncc(-c2cc(CN3CCN(c4ccc(C(=O)N(C)CC56CC7CC(CC(C7)C5)C6)cc4)CC3)cc(OC(F)(F)F)c2)c1 [B3A064-01, N-(1-Adamantylmethyl)-4-[4-[[3-(5-ethoxypyridin-3-yl)-5-(trifluoromethoxy)phenyl]methyl]piperazin-1-yl]-N-methylbenzamide]
11 | 0.0% | 0.0% | CCOc1cccc(-c2ccc(CN3CCN(c4ccc(C(=O)N(C)CC56CC7CC(CC(C7)C5)C6)cc4)CC3)c3ccccc23)c1 [B3A065-01, N-(1-Adamantylmethyl)-4-[4-[[4-(3-ethoxyphenyl)naphthalen-1-yl]methyl]piperazin-1-yl]-N-methylbenzamide]
12 | 6.3% | −2.9% | CCOc1cncc(-c2ccc(CN3CCN(c4ccc(C(=O)N(C)CC56CC7CC(CC(C7)C5)C6)cc4)CC3)c3ccccc23)c1 [B3A066-01, N-(1-Adamantylmethyl)-4-[4-[[4-(5-ethoxypyridin-3-yl)naphthalen-1-yl]methyl]piperazin-1-yl]-N-methylbenzamide]
13 | −7.3% | 4.0% | CCOc1cccc(-c2csc(CN3CCN(c4ccc(C(=O)N(C)CC56CC7CC(CC(C7)C5)C6)cc4)CC3)c2)c1 [B3A067-01, N-(1-Adamantylmethyl)-4-[4-[[4-(3-ethoxyphenyl)thiophen-2-yl]methyl]piperazin-1-yl]-N-methylbenzamide]
14 | 1.4% | −3.6% | CCOc1cncc(-c2csc(CN3CCN(c4ccc(C(=O)N(C)CC56CC7CC(CC(C7)C5)C6)cc4)CC3)c2)c1 [B3A068-01, N-(1-Adamantylmethyl)-4-[4-[[4-(5-ethoxypyridin-3-yl)thiophen-2-yl]methyl]piperazin-1-yl]-N-methylbenzamide]
15 |  | 12872.1% | CCOc1cccc(C#Cc2ccccc2CN2CCN(c3ccc(C(=O)N(C)CC45CC6CC(CC(C6)C4)C5)cc3)CC2)c1 [B3A069-01, N-(1-Adamantylmethyl)-4-[4-[[2-[2-(3-ethoxyphenyl)ethynyl]phenyl]methyl]piperazin-1-yl]-N-methylbenzamide]
16 | 7.7% | −8.1% | CCOc1cncc(C#Cc2ccccc2CN2CCN(c3ccc(C(=O)N(C)CC45CC6CC(CC(C6)C4)C5)cc3)CC2)c1 [B3A070-01, N-(1-Adamantylmethyl)-4-[4-[[2-[2-(5-ethoxypyridin-3-yl)ethynyl]phenyl]methyl]piperazin-1-yl]-N-methylbenzamide]
17 | 3.2% | −4.7% | CCOc1cccc(-c2ccccc2CN2CCN(c3ccc(C(=O)N(C)CC45CC6CC(CC(C6)C4)C5)nn3)CC2)c1 [B3A071-01, N-(1-Adamantylmethyl)-6-[4-[[2-(3-ethoxyphenyl)phenyl]methyl]piperazin-1-yl]-N-methylpyridazine-3-carboxamide]
18 | 11.6% | 3.1% | CCOc1cncc(-c2ccccc2CN2CCN(c3ccc(C(=O)N(C)CC45CC6CC(CC(C6)C4)C5)nn3)CC2)c1 [B3A072-01, N-(1-Adamantylmethyl)-6-[4-[[2-(5-ethoxypyridin-3-yl)phenyl]methyl]piperazin-1-yl]-N-methylpyridazine-3-carboxamide]
19 | 10.7% | −17.2% | CCOc1cncc(-c2ccc(CN3CCN(c4ccc(C(=O)N(C)CC56CC7CC(CC(C7)C5)C6)nn4)CC3)cc2C)c1 [B3A074-01, N-(1-Adamantylmethyl)-6-[4-[[4-(5-ethoxypyridin-3-yl)-3-methylphenyl]methyl]piperazin-1-yl]-N-methylpyridazine-3-carboxamide]
